The values below come from patent US12472230B2, “Peptides and methods of use thereof in treating uveitis” (Park Strategic Ventures LLC, priority 2019, dated 2025).

As a reminder, the half-life is the time needed for the level to fall by half in the phase considered. As a reminder, the solubility is the concentration that dissolves in the medium under given conditions.

Converted amounts (≈) assume the structure as drawn. Residues, ends and D or L forms follow the SMILES beside them. No end group written: not given here. *: point of attachment. Myristoyl = CCCCCCCCCCCCCC(=O)*

Series [1] can be described thus: T/2 in human plasma. Format: in vitro ADME.
A short description of series [2]: Solubility in HNS. The class given is physicochemical.
The test system of series [3] is release of inflammatory mediators from leukocyte cell types. In words: Release of inflammatory mediators from leukocyte cell types, MANS versus RNS. Format: cell-based, human. The note with it: each of the cell types examined; time course of 0.5-3.0 hrs. As to the method:
In an in vitro method to inhibit or attenuate the release of a mediator of inflammation such as those described herein, each of the cell types is preincubated with a peptide compound or peptide composition of this disclosure over a range of concentrations followed by incubation of these cells by a stimulator of release of inflammatory mediators, such as phorbol ester. The percent of inhibition of release of a mediator of inflammation is determined as compared to the release of the mediator in the absence of the peptide compound or peptide composition, such as in a specrophotometric readout of a concentration of the mediator released.

Regarding `CCCCCCCCCCCCCC(=O)NCC(=O)N[C@@H](C)C(=O)N[C@@H](CCC(N)=O)C(=O)N[C@@H](Cc1ccccc1)C(=O)N[C@@H](CO)C(=O)N[C@@H](CCCCN)C(=O)N[C@H](C(=O)N[C@@H](C)C(=O)N[C@@H](C)C(=O)N[C@@H](CCCCN)C(=O)O)[C@@H](C)O` [BIO-11000] (Myristoyl-GAQFSKTAAK-OH), the half-life in series [1] was 72 min. Further, the solubility in series [2] is 15 mg/mL (≈ 12.3 mM). Take `CCCCCCCCCCCCCC(=O)NCC(=O)N[C@@H](C)C(=O)N[C@@H](CCC(N)=O)C(=O)N[C@@H](Cc1ccccc1)C(=O)N[C@@H](CO)C(=O)N[C@@H](CCCCN)C(=O)N[C@H](C(=O)N[C@@H](C)C(=O)N[C@@H](C)C(=O)N[C@@H](CCCCN)C(N)=O)[C@@H](C)O` [BIO-11002] (Myristoyl-GAQFSKTAAK-NH2): the “T/2 (human plasma), in words” value in series [1] is “stable”. In series [2], this compound came in with a solubility of less than 10 mg/mL.

`C[C@@H]1NC(=O)CNC(=O)[C@H](CCCCN)NC(=O)[C@H](C)NC(=O)[C@H](C)NC(=O)[C@H]([C@@H](C)O)NC(=O)[C@H](CCCCN)NC(=O)[C@H](CO)NC(=O)[C@H](Cc2ccccc2)NC(=O)[C@H](CCC(N)=O)NC1=O` [BIO-11007] (cyclo(GAQFSKTAAK); ring closure inferred) came in with a solubility in series [2] of 150 mg/mL (≈ 151 mM). `CCCCCCCCCCCCCC(=O)N[C@@H](C)C(=O)N[C@@H](CCCCN)C(=O)NCC(=O)N[C@@H](CCC(=O)O)C(=O)O` [BIO-91200, Ma-AKGE-OH] (Myristoyl-AKGE-OH) showed a solubility in series [2] of roughly 1 mg/mL (≈ 1.63 mM). For `CC(=O)N[C@@H](C)C(=O)N[C@@H](CCCCN)C(=O)NCC(=O)N[C@@H](CCC(=O)O)C(=O)O` [BIO-91201, Ac-AKGE-OH] (Ac-AKGE-OH), in series [2], the solubility stood at 200 mg/mL (≈ 449 mM). In series [2], `CC(=O)N[C@@H](C)C(=O)N[C@@H](CCCCN)C(=O)NCC(=O)N[C@@H](CCC(=O)O)C(N)=O` [BIO-91202, Ac-AKGE-NH2] (Ac-AKGE-NH2) came in with a solubility of 200 mg/mL (≈ 450 mM). In series [1], `CCCCCCCCCCCCCC(=O)NCC(=O)N[C@@H](C)C(=O)N[C@@H](CCC(N)=O)C(=O)N[C@@H](Cc1ccccc1)C(=O)N[C@@H](CO)C(=O)N[C@@H](CCCCN)C(=O)N[C@H](C(=O)N[C@@H](C)C(=O)N[C@@H](C)C(=O)N[C@@H](CCCCN)C(=O)NCC(=O)N[C@@H](CCC(=O)O)C(=O)N[C@@H](C)C(=O)N[C@@H](C)C(=O)N[C@@H](C)C(=O)N[C@@H](CCC(=O)O)C(=O)N[C@@H](CCCNC(=N)N)C(=O)N1CCC[C@H]1C(=O)NCC(=O)N[C@@H](CCC(=O)O)C(=O)N[C@@H](C)C(=O)N[C@@H](C)C(=O)N[C@H](C(=O)N[C@@H](C)C(=O)O)C(C)C)[C@@H](C)O` [MANS] (Myristoyl-GAQFSKTAAKGEAAAERPGEAAVA-OH; C-terminus assumed) had a half-life of 12 min. In addition, in series [2], the solubility was less than 5 mg/mL. As for Ac-GAQFSKTA-OH [BIO-10803], in series [2], the concentration in solution (solubility) was 200 mg/mL. In turn, Ac-GAQFSKTAA-OH [BIO-10901] had a half-life in series [1] of 5 min. The compound further showed a solubility in series [2] greater than 60 mg/mL.

On to Ac-GAQFSKTAAKGE-NH2 [BIO-11211], for which, in series [1], the half-life was greater than 156 min. For the same compound, the concentration in solution in series [2] (solubility) came to 60 mg/mL. In the case of “Ac-GAQFSKTAAKGEAAAERPGEAAVA-OH [Ac-MANS]”, the concentration in solution in series [2] (solubility) was 125 mg/mL. As for “BIO-11018: SEQ ID NO 106 pegylated (GAQFSKTAAK; also: PEGylated, site not given here)”, the “Solubility in HNS” value in series [2] is reported as greater than 100 mg/mL.

Take GTAPAAEGAGAEVKRASAEAKQAF [RNS]: the “release of inflammatory mediators” value in series [3] is “not”. In the case of H-GAQFSKTAAK-NH2 [BIO-11005], in series [1], the half-life was determined as 20 min. The solubility in series [2] came to 100 mg/mL.
